Measurements taken from paper PMC7076710, “Synthesis, Identification, and Structure–Activity Relationship Analysis of GATA4 and NKX2-5 Protein–Protein Interaction Modulators” (Journal of Medicinal Chemistry, 2019).

Target: T1, GATA4–NKX2-5 transcriptional synergy (Mus musculus, UniProt P42582+Q08369)
T1 construct: expressed in transfected cells; host or cells: COS-1
Assay: GATA4–NKX2-5 transcriptional synergy luciferase reporter assay (3xNKE reporter, COS-1 cells)
Type: cell-based

[1] = COS-1, compound 3 µM, luciferase reporter activity relative to control
[2] = COS-1, compound 10 µM, luciferase reporter activity relative to control
[3] = COS-1, compound 3 µM, luciferase reporter activity, spread in separate STDEV column
[4] = COS-1, compound 10 µM, luciferase reporter activity, spread in separate STDEV column
[5] = 3 µM compound, GATA4–NKX2-5 transcriptional synergy reporter, COS-1 cells
[6] = 10 µM compound, GATA4–NKX2-5 transcriptional synergy reporter, COS-1 cells
[7] = COS-1, compound at 3 µM, luciferase reporter activity, % of control
[8] = COS-1, compound at 10 µM, luciferase reporter activity, % of control
[9] = COS-1, GATA4-NKX2-5 transcriptional synergy luciferase reporter assay, compound at 3 µM
[10] = COS-1, GATA4-NKX2-5 transcriptional synergy luciferase reporter assay, compound at 10 µM

T1 sequence (Q08369 whole entry): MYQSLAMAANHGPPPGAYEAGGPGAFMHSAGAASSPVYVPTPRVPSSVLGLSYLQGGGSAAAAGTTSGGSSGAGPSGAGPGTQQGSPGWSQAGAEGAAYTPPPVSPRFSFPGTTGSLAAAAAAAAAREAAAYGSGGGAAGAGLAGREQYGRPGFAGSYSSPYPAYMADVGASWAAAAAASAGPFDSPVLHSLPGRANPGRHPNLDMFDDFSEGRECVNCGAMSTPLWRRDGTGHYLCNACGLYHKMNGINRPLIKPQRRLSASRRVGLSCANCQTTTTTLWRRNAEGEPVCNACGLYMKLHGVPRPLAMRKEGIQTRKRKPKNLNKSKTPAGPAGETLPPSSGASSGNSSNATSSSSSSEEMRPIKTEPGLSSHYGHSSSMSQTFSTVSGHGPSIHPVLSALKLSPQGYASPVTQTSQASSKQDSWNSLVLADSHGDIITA
T1 sequence (P42582 whole entry): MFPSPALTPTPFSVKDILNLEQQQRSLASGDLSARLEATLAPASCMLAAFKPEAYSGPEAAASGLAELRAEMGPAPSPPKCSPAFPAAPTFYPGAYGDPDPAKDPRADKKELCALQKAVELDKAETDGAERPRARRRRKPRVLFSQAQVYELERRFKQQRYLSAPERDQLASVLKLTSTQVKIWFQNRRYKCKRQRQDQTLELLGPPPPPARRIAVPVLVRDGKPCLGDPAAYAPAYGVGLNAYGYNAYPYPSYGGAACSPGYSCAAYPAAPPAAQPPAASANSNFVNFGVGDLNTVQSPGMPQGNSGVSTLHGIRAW

Cc1cc(NC(=O)c2c(C)noc2-c2ccccc2)ccc1C(C)C [SI72]
activity at 3 µM [1]: 102% | activity at 10 µM [2]: 95%

CCN(CC)c1ccc(NC(=O)c2c(C)noc2-c2noc(C)c2C)cc1 [SI73]
activity at 3 µM [3]: 86% | activity at 10 µM [4]: 97.9%

CCN(CC)c1ccc(NC(=O)c2c(C)noc2-c2cc(CCOc3ccccn3)on2)cc1 [SI74]
activity at 3 µM [3]: 97.4% | activity at 10 µM [4]: 104%

CCc1cc(-c2onc(C)c2C(=O)Nc2ccc(N(CC)CC)cc2)no1 [SI75]
activity at 3 µM [3]: 97.5% | activity at 10 µM [4]: 88.8%

CCN(CC)c1ccc(NC(=O)c2c(C)noc2-c2cc(-c3ccco3)on2)cc1 [SI76]
activity at 3 µM [3]: 108% | activity at 10 µM [4]: 100%

Cc1cc(-c2onc(C)c2C(=O)N(C)c2ccc3oc(-c4ccccc4)cc(=O)c3c2)no1 [SI77]
activity at 3 µM [3]: 122% | activity at 10 µM [4]: 121%

CCN(CC)c1ccc(NCc2c[nH]nc2-c2ccc(F)cc2)cc1 [SI81]
activity at 3 µM [5]: 98.1% | activity at 10 µM [6]: 82.3%

Fc1ccc(-c2n[nH]cc2C=Nc2ccc(N3CCOCC3)cc2)cc1 [SI82]
activity at 3 µM [7]: 103% | activity at 10 µM [8]: 87.6%

CCN(CC)c1ccc(NCc2c[nH]nc2-c2cccs2)cc1 [SI83]
activity at 3 µM [5]: 99% | activity at 10 µM [6]: 103%

CCN(CC)c1ccc(CNCc2c[nH]nc2-c2ccccc2)cc1 [SI84]
activity at 3 µM [1]: 91.3% | activity at 10 µM [2]: 84.8%

CCN(CC)c1ccc(NCc2c[nH]nc2C2CCCCC2)cc1 [SI85]
activity at 3 µM [5]: 88.4% | activity at 10 µM [6]: 82.1%

CCN(CC)c1ccc(NC(=O)c2c[nH]nc2C2CCCCC2)cc1 [SI86]
activity at 3 µM [3]: 94.8% | activity at 10 µM [4]: 70.7%

Cc1cc(NC(=O)c2cnn(C)c2-c2ccccc2)ccc1C(C)C [SI87]
activity at 3 µM [5]: 88.1% | activity at 10 µM [6]: 68.4%

O=C(Nc1ccc2oc(-c3ccccc3)cc(=O)c2c1)c1c[nH]nc1-c1ccccc1 [SI90]
activity at 3 µM [5]: 102% | activity at 10 µM [6]: 71.2%

COc1ccc(-c2cc(N=Cc3ccc(N(C)C)cc3)n[nH]2)cc1 [SI91]
activity at 3 µM [7]: 94.2% | activity at 10 µM [8]: 89.2%

CN(C)c1ccc(C=Nc2cc(-c3ccccc3)nn2-c2ccccc2)cc1 [SI93]
activity at 3 µM [7]: 93.3% | activity at 10 µM [8]: 107%

COc1ccc(-c2n[nH]c(N)c2/N=N/c2ccc(C(=O)O)cc2)cc1 [SI95]
activity at 3 µM [1]: 91.9% | activity at 10 µM [2]: 89.3%

CCCCOC(=O)c1ccc(N=Nc2c(-c3ccc(OC)cc3)n[nH]c2N)cc1 [SI96]
activity at 3 µM [1]: 97.6% | activity at 10 µM [2]: 78.6%

Nc1c(/N=N/c2ccc([N+](=O)[O-])cc2)c(-c2ccccc2)nn1-c1ccccc1 [SI97]
activity at 3 µM (COS-1, 3 µM, luciferase reporter activity, % of control): 73.3% | activity at 10 µM (COS-1, 10 µM, luciferase reporter activity, % of control): 61.2%

COc1ccc(NC(=O)n2nc(N)cc2-c2ccc(OC)cc2)cc1 [SI99]
activity at 3 µM [7]: 79.8% | activity at 10 µM [8]: 108%

O=C(Nc1ccc2oc(-c3ccccc3)cc(=O)c2c1)c1cnsc1 [SI100]
activity at 3 µM [1]: 112% | activity at 10 µM [2]: 117%

Cc1cc(C(=O)Nc2ccc3oc(-c4ccccc4)cc(=O)c3c2)c(-c2ccccc2)o1 [SI101]
activity at 3 µM [5]: 90.8% | activity at 10 µM [6]: 78%

O=C(Nc1ccc2oc(-c3ccccc3)cc(=O)c2c1)c1ncoc1-c1ccccc1 [SI102]
activity at 3 µM [5]: 103% | activity at 10 µM [6]: 91.3%

CSc1nsc(SC)c1C(=O)Nc1ccc2oc(-c3ccccc3)cc(=O)c2c1 [SI103]
activity at 3 µM [5]: 96.2% | activity at 10 µM [6]: 110%

O=C(Nc1ccc2oc(-c3ccccc3)cc(=O)c2c1)c1snnc1-c1ccccc1 [SI104]
activity at 3 µM [5]: 103% | activity at 10 µM [6]: 94.9%

Cc1noc(-c2ccccc2)c1C(=O)Nc1ccc2oc(-c3ccccc3)cc(=O)c2c1 [SI105]
activity at 3 µM [1]: 70.3% | activity at 10 µM [2]: 44.1%

CCN(CC)c1ccc(C(=O)Nc2c(C(N)=O)oc3ccccc23)cc1 [SI106]
activity at 3 µM [7]: 94.1% | activity at 10 µM [8]: 95.8%

CC(=O)c1ccc(OCc2cc(-c3ccc(CC(C)C)cc3)on2)cc1 [SI107]
activity at 3 µM [1]: 113% | activity at 10 µM [2]: 104%

Cc1onc(-c2ccccc2)c1NCc1ccc(N(C)C)cc1 [SI109]
activity at 3 µM [7]: 87.1% | activity at 10 µM [8]: 89.9%

COC(=O)c1ccc(N(C)C(=O)c2c(-c3ccccc3)noc2C)cc1 [SI110]
activity at 3 µM [5]: 100% | activity at 10 µM [6]: 117%

COC(=O)c1c(-c2ccccc2)nnn1CCc1ccccc1 [SI111]
activity at 3 µM [1]: 103% | activity at 10 µM [2]: 106%

COc1ccc(-c2cc(N)nn2C(=O)c2ccc(C(C)(C)C)cc2)cc1 [SI112]
activity at 3 µM [7]: 104% | activity at 10 µM [8]: 71.9%

N#Cc1ccc(NC(=O)c2cc(-c3ccco3)on2)cc1 [SI113]
activity at 3 µM [3]: 101% | activity at 10 µM [4]: 99.2%

CCN(CC)C(=O)c1cc(-c2cccs2)on1 [SI114]
activity at 3 µM [3]: 124% | activity at 10 µM [4]: 115%

COc1ccc(NC(=O)c2c(-c3ccc(Br)s3)noc2C)cc1Cl [SI115]
activity at 3 µM [3]: 92% | activity at 10 µM [4]: 91.9%

Cc1onc(-c2ccc(Br)s2)c1C(=O)Nc1ccc(C(C)C)cc1 [SI116]
activity at 3 µM [3]: 99.4% | activity at 10 µM [4]: 97.2%

Cc1onc(-c2ccc(Br)s2)c1C(=O)NC1CC1 [SI117]
activity at 3 µM [3]: 90% | activity at 10 µM [4]: 105%

N#Cc1ccc(NC(=O)c2cc(-c3ccncc3)[nH]n2)cc1 [SI118]
activity at 3 µM [3]: 96.6% | activity at 10 µM [4]: 102%

CC(C)c1ccc(NC(=O)c2n[nH]c3c2COc2ccccc2-3)cc1 [SI119]
activity at 3 µM [9]: 91.2% | activity at 10 µM [10]: 103%

CCN(CC)c1ccc(NC(=O)c2cc(-c3ccco3)[nH]n2)cc1 [SI120]
activity at 3 µM [9]: 91.7% | activity at 10 µM [10]: 90.7%

O=C1COc2ccc(NC(=O)c3cc(-c4ccccc4)[nH]n3)cc2N1 [SI121]
activity at 3 µM [9]: 101% | activity at 10 µM [10]: 90.6%

O=C(Nc1ccc2c(c1)OC(F)(F)O2)c1cc(-c2ccco2)on1 [SI122]
activity at 3 µM [9]: 91.8% | activity at 10 µM [10]: 102%

O=C(Nc1ccc(F)c(Cl)c1)c1cnoc1-c1ccco1 [SI124]
activity at 3 µM [9]: 108% | activity at 10 µM [10]: 102%

CCC1(C)Oc2ccc(NC(=O)c3cnoc3-c3ccc(C)o3)cc2O1 (centres unmarked) [SI125]
activity at 3 µM [9]: 106% | activity at 10 µM [10]: 91.7%

CCOC(=O)c1cc(NC(=O)c2cc(-c3ccccc3)no2)c[nH]1 [SI126]
activity at 3 µM [9]: 100% | activity at 10 µM [10]: 101%

O=C(Nc1ccc(N2CCCS2(=O)=O)cc1)c1c[nH]cc1-c1ccc(Cl)s1 [SI127]
activity at 3 µM [9]: 96.7% | activity at 10 µM [10]: 82.9%

O=C(Nc1cc(-c2cccs2)n[nH]1)c1ccccc1 [SI128]
activity at 3 µM [9]: 110% | activity at 10 µM [10]: 69.3%

CN(C)c1c(F)cc(NC(=O)c2cc(-c3ccco3)on2)cc1F [SI129]
activity at 3 µM [9]: 94.3% | activity at 10 µM [10]: 115%

O=C(Nc1cccc(N2CCCC2=O)c1)c1cc(-c2ccccc2)[nH]n1 [SI130]
activity at 3 µM [9]: 102% | activity at 10 µM [10]: 106%

CCN(CC)c1ccc(NC(=O)c2c(-c3cccc(Br)c3)noc2C)c(C)c1 [SI131]
activity at 3 µM [9]: 85.4% | activity at 10 µM [10]: 88.3%

CCN(CC)c1ccc(NC(=O)c2c(-c3ccccc3)noc2C)c(C)c1 [SI132]
activity at 3 µM [9]: 85.4% | activity at 10 µM [10]: 61.6%

Cc1ccc(NC(=O)c2c(-c3cc(C)on3)noc2C)cc1 [SI133]
activity at 3 µM [9]: 88.6% | activity at 10 µM [10]: 86.3%

Cc1cc(-c2noc(C)c2C(=O)Nc2ccc(Cl)cc2)no1 [SI134]
activity at 3 µM [9]: 82.9% | activity at 10 µM [10]: 87.7%

Cc1cc(-c2noc(C)c2C(=O)Nc2ccc(C(F)(F)F)cc2)no1 [SI135]
activity at 3 µM [9]: 98.8% | activity at 10 µM [10]: 101%

Cc1cc(-c2noc(C)c2C(=O)Nc2cccc(Cl)c2)no1 [SI136]
activity at 3 µM [9]: 83% | activity at 10 µM [10]: 82.5%
